According to patent publication US20250205341A1, “PROTEIN DELIVERY COMPOSITION CONTAINING BILE SALT AND CATIONIC PEPTIDE AND USE THEREOF” (BION INC., priority 2022, published 2025):
Non-standard residues stand in square brackets, D forms with d. No end group written: not given here.

Key:
Assay type in all cases: in vivo
[1] = tested on: C57BL/6 mice maintaining normal blood glucose levels; test: Insulin absorption upon oral administration (into the stomach using a zonde), blood glucose lowering; settings: 100 mM taurocholate + 2U/kg insulin + 0.1, 1, 10 μM SEQ6 or 1, 10, 100 μM SEQ2; FIG. 2
Protocol: Examination was made of the change in insulin absorption upon oral administration of bile salts and/or peptides represented by SEQ ID NOS: 1 to 18. The absorption rate of insulin was indicated by measuring the blood glucose-lowering rate after insulin administration.
Specifically, C57BL/6 mice maintaining normal blood glucose levels were prepared, and blood glucose levels were measured using an Accu-Chek glucometer before administering insulin with bile salts and/or cationic peptides. Insulin, along with bile salts and/or cationic peptides, was administered directly into the stomach using a zonde, and blood glucose changes were measured over time.

[2] = tested on: C57BL/6 mice maintaining normal blood glucose levels; test: Insulin absorption upon topical (skin) application, blood glucose change; settings: 50 μl on shaved skin, with mixture of taurocholate and SEQ6; FIG. 8
From the text: Examination was made of the change in insulin absorption upon topical application due to bile salts and/or peptides represented by SEQ ID NO: 1 to SEQ ID NO: 18. The absorption rate of insulin was indicated by measuring the blood glucose-lowering rate after insulin administration. Specifically, C57BL/6 mice maintaining normal blood glucose levels were shaved on the back using a depilatory cream the day before the experiment. On the day of the experiment, the mice were anesthetized by intraperitoneal injection of Ketamine/Xylazine (100 mg/kg and 10 mg/kg, respectively). After confirming stable anesthesia, blood glucose levels were measured using an Accu-Chek glucometer before administering insulin with bile salts and/or cationic peptides. A 50 μl volume of the solution was applied to the shaved skin, and blood glucose changes were measured over time.

[3] = tested on: C57BL/6 mice maintaining normal blood glucose levels; test: Insulin absorption in sublingual mucosal tissue, blood glucose lowering after sublingual administration; settings: sublingual 10 μl; 100 mM taurocholate and/or 1 μM SEQ6 with 2U/kg insulin; FIG. 1
Protocol: All cationic peptides used in the experiment were synthesized by AnyGen Co., Ltd. The absorption rate of insulin was indicated by measuring the blood glucose-lowering rate after insulin administration.
Specifically, C57BL/6 mice (Orient Bio, Korea) maintaining normal blood glucose levels were anesthetized by intraperitoneal injection of Ketamine/Xylazine (100 mg/kg and 10 mg/kg, respectively) (BK Pharm, Korea). […] Each experimental group received 10 μl of the solution administered to the sublingual mucosa, and blood glucose changes were measured over time.

| Substance | insulin absorption (blood glucose-lowering effect) upon oral administration [1] | blood glucose-lowering effect of insulin upon topical application [2] | blood glucose-lowering rate by insulin (insulin absorption through sublingual mucosal tissue) [3] |
| --- | --- | --- | --- |
| RRRRRR [SEQ2] | significantly increases in a dose-dependent manner | – | – |
| insulin: insulin (Humulin N, Korea Lilly, Korea) | – | excellent blood glucose-lowering effect | – |
| rrrrrr ([dR][dR][dR][dR][dR][dR]) [SEQ6] | significantly increases in a dose-dependent manner | – | low |
